In patent publication US8303999B2, “Natural extract containing xanthohumol, method for the production thereof and products produced therefrom” (Ta-Xan AG, priority 2004, dated 2012):
In brackets after ≈: the same amount, converted by molar mass. Read-outs that look alike come from different tables or passages of the source.

Test: solubility limit of XN in aqueous solution (water)
Type: physicochemical
Conditions: read-out: solubility limit of XN in typical aqueous solutions
Method: For producing roasted extract comprising XN a hot aqueous extract of the ground roasted products e.g. of barley, wheat, rye as well as the corresponding malts, coffee beans or cacao beans is prepared. A hop extract comprising XN is added thereto at the beginning of the heating period. The extraction of xanthohumol in the extractions of the roasted products leads to a XN content which is by far higher than the solubility limit of XN in typical aqueous solutions. This amounts to 1.3 mg/l of XN at a water temperature of 23° C. and to 1.1 mg/l of XN at a water temperature of 8° C.

## COc1cc(O)c(CC=C(C)C)c(O)c1C(=O)/C=C/c1ccc(O)cc1 [XN, xanthohumol]
Water temperature of 8° C.
  solubility: 1.1 µg/mL (≈ 3.1 µM)
Water temperature of 23° C.
  solubility: 1.3 µg/mL (≈ 3.67 µM)
